Reference: patent US20110256557A1, “IDENTIFYING PARATHYROID HORMONE AGONISTS AND ANTAGONISTS” (DISCOVERYBIOMED, INC., priority 2008, published 2011)

Legend:
β-catenin [1] = assay: Western blot of cytosolic β-catenin in mouse calvarial primary preosteoblasts; format: cell-based; settings: concentration- and time-dependent
Experimental: Osteoblasts were isolated by digestion of calvaria of newborn mice as described (Wang et al., J. Clin. Invest. 117:1616-26 (2007)). Briefly, calvaria were incubated with 10 ml of digestion solution containing 1.8 mg/ml of collagenase type I (Worthington Biochemical Corp.; Lakewood, N.J.) for 15 minutes at 37° C. under constant agitation. The supernatant was then harvested, replaced with fresh collagenase and the digestion repeated an additional 4 times. Digestion solutions containing the osteoblasts were pooled together. After centrifugation, osteoblasts were obtained and cultured in α-Minimal Essential Media (MEM) containing 10% FBS and 1% penicillin/streptomycin at 37° C. in a humidified incubator supplied with 5% CO2.
Cells were harvested in cavitation buffer (5 mM HEPES, pH 7.4, 3 mM MgCl2, 1 mM EGTA, 250 mM sucrose) containing protease and phosphatase inhibitors and homogenized by nitrogen cavitation (200 p.s.i., for 5 minutes) in a cell disruption bomb (Parr Instrument Co.; Moline, Ill.). The cell homogenate was centrifuged twice at 700 g for 10 minutes to pellet the nuclei. The supernatant was further centrifuged at 100,000 g (Beckman SW50.1 rotor) for 1 hour to separate the membrane and cytosol fractions, and the resulting membrane pellet was washed three times with cavitation buffer before use in the assays (Zhang et al., Biochem. J. 343:541-9 (1999)). […]

β-catenin [2] = assay: Western blot of cytosolic β-catenin in UMR-106 cells; format: cell-based, rat
Experimental: (§1) Cells were harvested in cavitation buffer (5 mM HEPES, pH 7.4, 3 mM MgCl2, 1 mM EGTA, 250 mM sucrose) containing protease and phosphatase inhibitors and homogenized by nitrogen cavitation (200 p.s.i., for 5 minutes) in a cell disruption bomb (Parr Instrument Co.; Moline, Ill.). The cell homogenate was centrifuged twice at 700 g for 10 minutes to pellet the nuclei. The supernatant was further centrifuged at 100,000 g (Beckman SW50.1 rotor) for 1 hour to separate the membrane and cytosol fractions, and the resulting membrane pellet was washed three times with cavitation buffer before use in the assays (Zhang et al., Biochem. J. 343:541-9 (1999)). Immunoprecipitation and Western blot analysis of cell lysates were performed as described previously (Wan et al., Am. J. Pathol. 166:1379-92 (2005)).

[3] = system: phosphorylated LRP6 in osteoblasts; assay: Immunohistochemistry of phosphorylated LRP6 in femur sections, rats; format: in vivo, rat
Experimental: For the experiments in which rats or mice were administered PTH as single-dose injection, five-month-old male Sprague Dawley rats (Charles River Laboratories; Wilmington, Mass.) or two-month-old male C57BL/J6 mice (Jackson Laboratory; Bar Harbor, Me.) (6 per group) were administered a single dose of either vehicle (1 mM acetic acid in sterile PBS) or PTH (1-34) (Bachem Inc.; Torrance, Calif.) at 40 μg/kg in a volume of 100 μl. In the mouse model, mouse recombinant Wnt3a (R&D Systems; Minneapolis, Minn.) was injected at 25 μg/kg in a volume of 100 μl. All treatments were through bolus intravenous injection via the tail vein. Rats/mice were sacrificed at 0.5, 2, 8 and 24 hours after injection.
Formalin-fixed femur or tibia tissue sections of 5 μm thickness from rats or mice were processed with antigen retrieval and hydrogen peroxide treatment prior to incubation with primary monoclonal antibody specific for β-catenin (BD Biosciences; San Jose, Calif.), goat polyclonal antibody sclerostin (R&D Systems; Minneapolis, Minn.) or rabbit polyclonal phosphorylated LRP6 (Ab1490) for 1 hour at room temperature or overnight at 4° C. […] In the mouse model, numbers of total osteoblasts and numbers of β-catenin-positive osteoblasts were counted in three random high power fields in a 2-mm square, 1 mm distal to the lowest point of the growth plate in the secondary spongiosa. […]

LRP6 = LRP6 phosphorylation at PPPSP motifs, western blotting with Ab1490, UMR-106 cells; format: cell-based, rat; settings: UMR-106 cells, endogenous LRP6, Ab1490
Experimental: as §1
As phosphorylation of LRP6 at the PPPSP motifs plays a crucial role in activating downstream β-catenin signaling by Wnt, whether PTH induces phosphorylation of LRP6 at PPPSP motifs (Mao et al., Mol. Cell. 7:801-9 (2001); Tamai et al., Mol. Cell. 13:149-56 (2004); Davidson et al., Nature 438:867-72 (2005); Zeng et al., Nature 438:873-7 (2005)). Immunoprecipitated LRP6 from extracts of PTH-treated UMR-106 cells were monitored for their phosphorylation, by western blotting, with an antibody that recognizes phosphorylated PPPSP motifs (Ab1490) (Tamai et al., Mol. Cell. 13:149-56 (2004)). […] Phosphorylation of PPPSP motifs is required for axin recruitment from cytoplasm to LRP6 at cell membrane. […] Fz8CRD, a competitive inhibitor of the Wnt receptor Fz (Hsieh et al., Proc. Natl. Acad. Sci. USA 96:3546-55 (1999)), was used to exclude the possibility that these PTH effects are mediated through promotion of Wnts production or sensitization of Wnt-stimulated signaling. […] In contrast, LRP6N blocked PTH-stimulated LRP6 phosphorylation (FIG. 33).

**Q.** What does the source list for Parathyroid hormone [PTH]?
**A.** levels of β-catenin in the cytosol (β-catenin [1]): enhanced; abundance of β-catenin in the cytosol (β-catenin [2]): enhanced; phosphorylation of LRP6 in preosteoblasts or osteoblasts at the surface of trabecular bone ([3]; single dose of PTH (1-34) 40 μg/kg, antibody specific for phosphorylated PPPSP): stimulated; amount of total LRP6 protein ([3]; single dose, same tissue): remained unchanged; phosphorylation of LRP6 at the PPPSP motifs (LRP6): rapidly induced
